Reference: US11766447B2, “3′3′-cyclic dinucleotide analogue comprising a cyclopentanyl modified nucleotide as sting modulator” (INSTITUTE OF ORGANIC CHEMISTRY AND BIOCHEMISTRY ASCR, V.V.I., priority 2019, dated 2023)

How the values were obtained:
WT STING [1] = target: T1, WT STING (Homo sapiens, UniProt Q86WV6, H232R); experiment: Differential scanning fluorimetry (DSF) with WT STING; type: binding; set-up: 8xHis (N, cleaved yes); SUMO (N, cleaved yes); made in house; host or cells: E. coli Rosetta-gami B (DE3); details: thermal shift vs apoprotein; 150 μM CDN; truncated human WT STING 0.1 mg/ml
Procedure: (§1) Purified PCR products were cleaved with restriction enzymes BamHI (cat. #R0136S, NEB, Ipswich, USA) and NotI (cat. #R0189S, NEB, Ipswich, USA) and cloned into the pSUMO vector linearized with the identical enzymes.
(§2) DNase I (cat. #D5025, Sigma Aldrich, Czech Republic) and RNase A (cat. #R6513, Sigma Aldrich, Czech Republic) were added (final concentration 50 μg/ml) together with MgCl2 (final concentration 5 mmol·l^−1) to the homogenate and bacteria were lysed using French Press G-M™ High-Pressure Cell Press Homogenizer (1500 psi, 3 cycles). […] The resin was poured into a chromatography column, washed with 50 ml buffer A (50 mmol·l^−1 TrisCl (pH 8.0), 800 mmol·l^−1 NaCl, 3 mmol·l^−1 β-mercaptoethanol; 10% glycerol; 20 mmol·l^−1 imidazol) and 8-His-SUMO tagged STING proteins were eluted with 15 ml buffer A containing 300 mmol·l^−1 imidazole. […] Proteins were concentrated with Amicon® Ultra-15 10 K device (cat. #UFC901008, Merck Millipore, Billerica, USA) and flash frozen in liquid N2.
(§3) 20 μL solutions of the reaction mixtures were pipetted in triplicates into 96 well optical reaction plates and thermal denaturation of samples were performed on real time PCR cycler (LightCycler® 480 Instrument II—Roche, Basel, Switzerland). The first derivative of the thermal denaturation curves was performed to calculate denaturing temperatures of STING-CDN complexes and STING apoproteins. The thermal shift for each CDN was calculated by subtracting the average denaturing temperature of STING apoprotein from the average denaturing temperature of STING CDN complex.
Target sequence in this assay (Q86WV6 140-343 H232R): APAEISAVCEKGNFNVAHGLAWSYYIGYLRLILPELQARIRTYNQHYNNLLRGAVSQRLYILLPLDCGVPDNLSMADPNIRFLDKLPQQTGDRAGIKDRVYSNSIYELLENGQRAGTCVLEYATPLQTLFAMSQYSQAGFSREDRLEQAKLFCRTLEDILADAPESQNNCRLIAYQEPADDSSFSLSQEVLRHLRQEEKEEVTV

WT STING [2] = target: T1, WT STING; experiment: Digitonin assay using 293T wtSTING-FL reporter cells; type: cell-based; set-up: host or cells: 293T (ATCC CRL-3216), stably transfected, with 4xISRE firefly luciferase reporter; details: 293T wtSTING-FL cells, ISRE firefly luciferase; compounds in Digitonin buffer 30 minutes, then 5 hours; 8-point curve
Description: Two complementary oligonucleotides of the sequence […] […] […] […] […] The oligonucleotides were mixed in equal molar amounts, hybridized, and cleaved by restriction endonucleases HindIII (cat. #. R0104S, NEB, Ipswich, USA) and BglII (cat. #R0144S, NEB, Ipswich, USA). Ultimately, they were ligated into plasmid pGL4.27 (cat. #E6651, Promega, Madison, USA) linearized with the same enzymes. As result the sequence with four ISRE sites was placed upstream of the minimum promoter of firefly luciferase reporter gene.
After 5 minutes incubation at room temperature (RT), 250 μL of the mixture was added dropwise to the cells in one well. Cells were incubated 36 hours at 37° C. with 5% CO2, and then detached with 0.05% Trypsin and 0.22 g/L EDTA (both cat. #L0941, Biowest, Riverside, USA).
Transfected cells were seeded onto poly-D-lysine coated six well plates at density 50,000 cells per 1 cm^2 in DMEM medium with high glucose containing 10% heat inactivated FBS, 30 μg/mL blasticidin (cat. #ant-b1-05, InvivoGen, San Diego, USA), 0.06 mg/ml Penicillin G and 0.1 mg/ml Streptomycin Sulfate (both cat. #. L0018, Biowest, Riverside, USA). The medium was replenished every 3-4 days until visible colonies of cells resistant to blasticidin were formed.
Blasticidin resistant cells stably expressing WT STING were further transfected with […] plasmid following the same procedure as described above. […] Homogeneous culture of stably double transfected cells was prepared by limiting dilution of cells in 96 well plates and wells with cells were selected that originated from a single cell.
The medium was removed next day and three fold serial dilutions of compounds in Digitonin buffer containing 50 mmol·l^−1 HEPES (cat. #H3375, Sigma Aldrich, Czech Republic) pH 7.0, 100 mmol·l^−1 KCl, 3 mmol·l^−1 MgCl2, 0.1 mmol·l^−1 DTT (cat. #D0632, Sigma Aldrich, Czech Republic), 85 mmol·l^−1 Sucrose (cat. #S7903, Sigma Aldrich, Czech Republic), 0.2% BSA (cat. #A2153, Sigma Aldrich, Czech Republic), 1 mmol·l^−1 ATP (cat. #A1852, Sigma Aldrich, Czech Republic), 0.1 mmol·l^−1 GTP (cat. #G8877, Sigma Aldrich, Czech Republic), and 10 μg/mL Digitonin A (cat. #D141, Sigma Aldrich, Czech Republic) were added to the cells. The buffer was removed after 30 minutes incubation at 37° C. with 5% CO2, the cells were washed once with 100 μl of cultivation medium, and 100 μl of medium was added to each well. The plates with cells were incubated for 5 hours at 37° C. with 5% CO2, 50 μl of the medium was removed and 30 μl of ONE-Glo™ Luciferase Assay System reagent (cat. #E6120, Promega, Madison, USA) was added to each well. Luminescence was read on Synergy H1 (Biotek, Winooski, USA). GraphPad Prism (La Jolla, USA) was used to calculate the 50% effective concentration ([…] from an 8-point dose-response curve.
Target sequence in this assay (Q86WV6 whole entry H232R, the tested form may be a part): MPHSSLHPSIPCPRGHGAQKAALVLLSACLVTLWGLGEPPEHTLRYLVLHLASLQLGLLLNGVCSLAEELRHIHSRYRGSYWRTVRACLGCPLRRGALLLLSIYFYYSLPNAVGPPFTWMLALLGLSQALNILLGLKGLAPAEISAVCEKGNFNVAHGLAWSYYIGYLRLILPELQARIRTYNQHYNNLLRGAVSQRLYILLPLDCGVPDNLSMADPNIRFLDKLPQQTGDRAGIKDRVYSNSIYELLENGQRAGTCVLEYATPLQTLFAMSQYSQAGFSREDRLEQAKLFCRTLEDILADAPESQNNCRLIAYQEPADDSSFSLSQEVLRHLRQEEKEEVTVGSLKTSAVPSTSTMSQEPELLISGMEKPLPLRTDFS

AQ STING (G230A-R293Q) = target: T2, AQ STING (G230A-R293Q) (Homo sapiens, UniProt Q86WV6, G230A/H232R/R293Q); experiment: Differential scanning fluorimetry (DSF) with AQ STING; type: binding; details: thermal shift vs apoprotein; 150 μM CDN; truncated human AQ STING 0.1 mg/ml
T2 construct: 8xHis (N, cleaved yes); SUMO (N, cleaved yes); made in house; host or cells: E. coli Rosetta-gami B (DE3)
T2 sequence (Q86WV6 140-343 G230A/H232R/R293Q): as the sequence (Q86WV6 140-343 H232R) above, with G91A, R154Q counted along it
Procedure: as §1, §2, §3

Q: For `Nc1nc2c(ncn2[C@H]2CC3OP(=O)(O)OC[C@H]4O[C@@H](n5cnc6c(N)ncnc65)C(F)C4OP(=O)(O)OC[C@H]3C2)c(=O)[nH]1` (stereo partly drawn) [Compound 116, (6R,8R,15R,17R)-17-(2-amino-6-oxo-6,9-dihydro-1H-purin-9-yl)-8-(6-amino-9H-purin-9-yl)-9-fluoro-3,12-dihydroxy-2,4,7,11,13-pentaoxa-3λ^5,12λ^5-diphosphatricyclo[13.3.0.0^6,10]octadecane-3,12-dione], which ΔTm at 150 µM (WT STING [1]) is on record?
A: The ΔTm at 150 µM was 8.5 °C.

Q: And the EC50 (WT STING [2])?
A: The EC50 was 7 nM.

Q: And the ΔTm at 150 µM (AQ STING (G230A-R293Q))?
A: The ΔTm at 150 µM was 13.1 °C.

Q: Which ΔTm at 150 µM (WT STING [1]) does the source give for `Nc1nc2c(ncn2[C@H]2CC3OP(=O)(O)OC[C@H]4O[C@@H](n5cnc6c(N)ncnc65)CC4OP(=O)(O)OC[C@H]3C2)c(=O)[nH]1` (stereo partly drawn) [Compound 117, (6R,8R,15R,17R)-17-(2-amino-6-oxo-6,9-dihydro-1H-purin-9-yl)-8-(6-amino-9H-purin-9-yl)-3,12-dihydroxy-2,4,7,11,13-pentaoxa-3λ^5,12λ^5-diphosphatricyclo[13.3.0.0^6,10]octadecane-3,12-dione] here?
A: The ΔTm at 150 µM was 2.2 °C.

Q: And the EC50 (WT STING [2])?
A: The EC50 was 200 nM.

Q: And the ΔTm at 150 µM (AQ STING (G230A-R293Q))?
A: The ΔTm at 150 µM was 7.1 °C.

Q: Which results are given for `Nc1nc2c(ncn2[C@@H]2C[C@@H]3COP(=O)(O)OC4C(F)[C@H](n5cnc6c(=O)[nH]c(N)nc65)O[C@@H]4COP(=O)(O)OC3C2O)c(=O)[nH]1` (stereo partly drawn) [Compound 122, 9,9′-((2R,3R,3aR,7aR,9R,10S,10aR,14aR)-3-fluoro-5,10,12-trihydroxy-5,12-dioxidodecahydro-2H-cyclopenta[d]furo[3,2-j][1,3,7,9]tetraoxa[2,8]diphosphacyclododecine-2,9-diyl)bis(2-amino-1,9-dihydro-6H-purin-6-one)]?
A: ΔTm at 150 µM (WT STING [1]): 3.5 °C; EC50 (WT STING [2]): 1600 nM; ΔTm at 150 µM (AQ STING (G230A-R293Q)): 9.5 °C

Q: With `Nc1nc2c(ncn2[C@H]2CC3OP(=O)(O)OC[C@H]4C[C@@H](n5cnc6c(=O)[nH]c(N)nc65)C(O)C4OP(=O)(O)OC[C@H]3C2)c(=O)[nH]1` (stereo partly drawn) [Compound 123, 9,9′-((2R,3S,3aR,7aR,9R,10aS,14aR)-3,5,12-trihydroxy-5,12-dioxidododecahydrodicyclopenta[d,j][1,3,7,9]tetraoxa[2,8]-diphospha-cyclododecine-2,9-diyl)bis(2-amino-1,9-dihydro-6H-purin-6-one)] as the compound, how does the ΔTm at 150 µM (WT STING [1]) read?
A: Its ΔTm at 150 µM is 1.1 °C.

Q: And the EC50 (WT STING [2])?
A: The EC50 was 1200 nM.

Q: What about the ΔTm at 150 µM (AQ STING (G230A-R293Q)) of the same compound?
A: The ΔTm at 150 µM was 4.6 °C.

Q: How did the ΔTm at 150 µM (WT STING [1]) turn out when `Nc1ncnc2c1ncn2[C@H]1CC2OP(=O)(O)OC[C@H]3C[C@@H](n4cnc5c(N)ncnc54)CC3OP(=O)(O)OC[C@H]2C1` (stereo partly drawn) [Compound 125, (2R,3aS,7aR,9R,10aS,14aR)-2,9-bis(6-amino-9H-purin-9-yl)-5,12-dihydroxydodecahydrodicyclopenta[d,j][1,3,7,9]-tetraoxa[2,8]diphosphacyclododecine 5,12-dioxide] was run?
A: The ΔTm at 150 µM was 0.7 °C.

Q: What about the EC50 (WT STING [2]) of the same compound?
A: The EC50 was 13200 nM.

Q: What about the ΔTm at 150 µM (AQ STING (G230A-R293Q)) of the same compound?
A: The ΔTm at 150 µM was 5.1 °C.

Q: What does the source list for `Nc1ncnc2c1ncn2[C@H]1CC2OP(=O)(O)OC[C@H]3O[C@@H](n4cnc5c(N)ncnc54)CC3OP(=O)(O)OC[C@H]2C1` (stereo partly drawn) [Compound 126, (2R,3aS,7aR,9R,10aS,14aR)-2,9-bis(6-amino-9H-purin-9-yl)-5,12-dihydroxydecahydro-2H-cyclopenta[d]furo[3,2-j][1,3,7,9]tetraoxa[2,8]diphosphacyclododecine 5,12-dioxide]?
A: ΔTm at 150 µM (WT STING [1]): 1.1 °C; EC50 (WT STING [2]): 1800 nM; ΔTm at 150 µM (AQ STING (G230A-R293Q)): 7.5 °C

Q: Which ΔTm at 150 µM (WT STING [1]) does the source give for `Nc1ncnc2c1ncn2[C@@H]1C[C@@H]2COP(=O)(O)O[C@H]3[C@@H](F)[C@H](n4cnc5c(N)ncnc54)O[C@@H]3COP(=O)(O)O[C@H]2[C@@H]1F` [Compound 127, (1R,6R,8R,9R,10R,15R,17R,18R)-8,17-bis(6-amino-9H-purin-9-yl)-9,18-difluoro-3,12-dihydroxy-2,4,7,11,13-pentaoxa-3λ^5,12λ^5-diphosphatricyclo[13.3.0.0^6,10]octadecane-3,12-dione] here?
A: Its ΔTm at 150 µM is 2.6 °C.

Q: And the EC50 (WT STING [2])?
A: The EC50 was 100 nM.

Q: What about the ΔTm at 150 µM (AQ STING (G230A-R293Q)) of the same compound?
A: The ΔTm at 150 µM was 7.9 °C.

Q: Which results are given for `Nc1nc2c(ncn2[C@@H]2O[C@@H]3COP(=O)(O)O[C@@H]4[C@@H](COP(=O)(O)O[C@H]3[C@H]2F)C[C@@H](n2cnc3c(N)ncnc32)[C@@H]4F)c(=O)[nH]1` [Compound 131, (1R,6R,8R,9R,10R,15R,17R,18S)-8-(2-amino-6-oxo-6,9-dihydro-1H-purin-9-yl)-17-(6-amino-9H-purin-9-yl)-9,18-difluoro-3,12-dihydroxy-2,4,7,11,13-pentaoxa-3λ^5,12λ^5-diphosphatricyclo[13.3.0.0^6,10]octadecane-3,12-dione]?
A: ΔTm at 150 µM (WT STING [1]): 13.4 °C; EC50 (WT STING [2]): 10 nM; ΔTm at 150 µM (AQ STING (G230A-R293Q)): 21.4 °C

Q: With `Nc1ncnc2c1ncn2[C@@H]1C[C@@H]2COP(=O)(O)OC3C(O)[C@H](n4cnc5c(N)ncnc54)C[C@@H]3COP(=O)(O)OC2C1O` (stereo partly drawn) [Compound 133, (2R,3S,3aR,7aR,9R,10S,10aR,14aR)-2,9-bis(6-amino-9H-purin-9-yl)-3,5,10,12-tetrahydroxydodecahydrodicyclopenta[d,j][1,3,7,9]tetraoxa[2,8]-diphosphacyclododecine 5,12-dioxide] as the compound, how does the ΔTm at 150 µM (WT STING [1]) read?
A: The ΔTm at 150 µM was 0.6 °C.

Q: And the EC50 (WT STING [2])?
A: Its EC50 is 1200 nM.

Q: What about the ΔTm at 150 µM (AQ STING (G230A-R293Q)) of the same compound?
A: Its ΔTm at 150 µM is 4.4 °C.

Q: Which results are given for `Nc1ncnc2c1ncn2[C@@H]1C[C@@H]2COP(=O)(O)O[C@H]3[C@@H](F)[C@H](n4cnc5c(N)ncnc54)O[C@@H]3COP(=O)(O)O[C@H]2[C@H]1O` [Compound 134, (1R,6R,8R,9R,10R,15R,17R,18S)-8,17-bis(6-amino-9H-purin-9-yl)-9-fluoro-3,12,18-trihydroxy-2,4,7,11,13-pentaoxa-3λ^5,12λ^5-diphosphatricyclo[13.3.0.0^6,10]octadecane-3,12-dione]?
A: ΔTm at 150 µM (WT STING [1]): 6.4 °C; EC50 (WT STING [2]): 20 nM; ΔTm at 150 µM (AQ STING (G230A-R293Q)): 13.2 °C
